Laboratory results published in paper PMC12077149, “Evolution of PqsE as a Pseudomonas aeruginosa-specific regulator of LuxR-type receptors: insights from Pseudomonas and Burkholderia” (mBio, 2025).

Experiments:
CepR [1] = target: T1, CepR (Burkholderia cepacia, UniProt Q9AM51); test: protein solubilization in E. coli, SDS-PAGE; type: cell-based; conditions: AHL added at induction
T1 construct: gene CO711_26440; untagged full-length, in E. coli (arabinose-inducible with pcepI-luxCDABE reporter; pET-DUET for solubility)

HhqE^Bc [2] = tested on: T2, HhqE^Bc; test: thiol release with Ellman's reagent, A412; type: biochemical, Burkholderia cepacia; conditions: 0.1 M Tris-HCl pH 8.0, 2 mM DTNB; 2 µM enzyme; substrate up to 1 mM
T2 construct: 6xHis-tagged, E. coli BL21(DE3), Ni-NTA and SEC; monomer (~32 kDa by SEC)
Excerpt: thiol release with Ellman's reagent, A412 on HhqE^Bc

CepR [3] = target: T1, CepR; test: E. coli pcepI-lux reporter; protein solubilization; type: cell-based; conditions: 10 µM AHL in reporter; agonist
HhqE^Bc [4] = tested on: T2, HhqE^Bc; test: fluorescence hydrolysis assay (ex […] / em […] nm); type: biochemical, Burkholderia cepacia; conditions: 50 mM Tricine, 0.01% Triton X-100; 2 µM enzyme; substrate up to 8 µM

T1 sequence (Q9AM51 entry or part of it): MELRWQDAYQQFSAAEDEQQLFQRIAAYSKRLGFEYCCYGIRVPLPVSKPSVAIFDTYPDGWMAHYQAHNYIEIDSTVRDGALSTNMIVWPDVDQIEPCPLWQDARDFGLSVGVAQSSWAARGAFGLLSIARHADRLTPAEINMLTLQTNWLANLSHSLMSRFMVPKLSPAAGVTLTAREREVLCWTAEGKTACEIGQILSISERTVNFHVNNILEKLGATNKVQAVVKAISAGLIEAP

CCCCCCCCCC(=O)CC(=O)N[C@H]1CCOC1=O [3OC12HSL]
protein solubilization in E. coli, SDS-PAGE (CepR [1]): C6HSL, C8HSL, C10HSL, and 3OC12HSL—were sufficient for the solubilization of CepR

CC(=O)CC(=O)SCCNC(=O)CCNC(=O)[C@H](O)C(C)(C)COP(=O)(O)OP(=O)(O)OC[C@H]1O[C@@H](n2cnc3c(N)ncnc32)[C@H](O)[C@@H]1OP(=O)(O)O [Acetoacetyl-CoA]
Km (HhqE^Bc [2]): 7.5 ± 0.4 mM

CCCCCC(=O)N[C@H]1CCOC1=O [C6HSL]
protein solubilization in E. coli, SDS-PAGE (CepR [1]): C6HSL, C8HSL, C10HSL, and 3OC12HSL—were sufficient for the solubilization of CepR

CCCCCCCC(=O)N[C@H]1CCOC1=O [C8HSL]
E. coli pcepI-lux reporter; protein solubilization (CepR [3]): CepR responded to its cognate ligand C8HSL and, to a lesser extent, C10HSL

CCCCCCCCCC(=O)N[C@H]1CCOC1=O [C10HSL]
E. coli pcepI-lux reporter; protein solubilization (CepR [3]): CepR responded to its cognate ligand C8HSL and, to a lesser extent, C10HSL

CCCC(=O)Oc1ccc2c(C)cc(=O)oc2c1 [MU-butyrate]
Km (HhqE^Bc [4]): 0.00016 mM
